Experimental data as given in PubChem BioAssay (NCI).
Several values for one entry are separate records, joined by “and”; a condition that tells them apart may be missing. Identical values can stand only once.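 In this assay, cells in 96-well plates receive the compound at five concentrations for 48 hours. Endpoints are linearly interpolated between the surrounding concentrations. The concentration for 50% growth inhibition is given as GI50. TGI: total growth inhibition.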

Experiments:
Test in all cases: growth of human tumour cells (NCI), 48 h
A549 NSCLC = test system: A549 NSCLC
DU-145 prostate = test system: DU-145 prostate
HT29 colon = test system: HT29 colon
OVCAR-8 ovarian = test system: OVCAR-8 ovarian
RPMI-8226 leukemia = test system: RPMI-8226 leukemia
SF-268 CNS = test system: SF-268 CNS
SN12C renal = test system: SN12C renal
SNB-75 CNS = test system: SNB-75 CNS
SW-620 colon = test system: SW-620 colon
UO-31 renal = test system: UO-31 renal

## COc1ccc(-c2nn(-c3ccc(NC(=O)c4ccc(Cl)c(C(F)(F)F)c4)cc3)cc2-c2ccncc2)cc1Cl
A549 NSCLC
  GI50: 1.81 µM
  TGI: > 100 µM
DU-145 prostate
  GI50: 4.6 µM
  TGI: > 100 µM
HT29 colon
  GI50: 0.337 µM
  TGI: 1.96 µM
OVCAR-8 ovarian
  GI50: 2.37 µM
  TGI: > 100 µM
RPMI-8226 leukemia
  GI50: 0.39 µM
  TGI: > 100 µM
SF-268 CNS
  GI50: 0.896 µM
  TGI: > 100 µM
SN12C renal
  GI50: 2.34 µM
  TGI: > 100 µM
SNB-75 CNS
  GI50: 0.287 µM
  TGI: 6.42 µM
SW-620 colon
  GI50: 1.06 µM
  TGI: > 100 µM
UO-31 renal
  GI50: 0.566 µM
  TGI: > 24.7 µM

## N=Nc1c(OC(=O)Nc2ccccc2)[nH]c2ccccc12
A549 NSCLC
  TGI: 44.4 µM
DU-145 prostate
  TGI: 22.7 µM
HT29 colon
  TGI: 96.2 µM
OVCAR-8 ovarian
  TGI: 33.9 µM
RPMI-8226 leukemia
  TGI: 32.1 µM
SF-268 CNS
  TGI: > 100 µM
SN12C renal
  TGI: 48.7 µM
SNB-75 CNS
  TGI: 50 µM
SW-620 colon
  TGI: > 100 µM
UO-31 renal
  TGI: 25.6 µM

## NC1=NC(c2ccc(Cl)cc2)N(c2ccc(S(=O)(=O)Nc3ncccn3)cc2)C(N)=N1 (stereo unspecified)
A549 NSCLC
  TGI: > 100 µM
DU-145 prostate
  TGI: > 100 µM
HT29 colon
  TGI: > 100 µM
OVCAR-8 ovarian
  TGI: > 100 µM
RPMI-8226 leukemia
  TGI: > 100 µM
SF-268 CNS
  TGI: > 100 µM
SN12C renal
  TGI: > 100 µM
SNB-75 CNS
  TGI: > 100 µM
SW-620 colon
  TGI: > 100 µM
UO-31 renal
  TGI: > 100 µM

## C/C=C(\C)c1cc(=O)c2c(C)cc3c(c2o1)C(=O)c1c(O)c(C2CC(C)(N(C)C)C(O)C(C)O2)cc(C2CC(N(C)C)C(O)C(C)O2)c1C3=O (stereo unspecified)
A549 NSCLC
  GI50: 0.153 µM
  TGI: 1.66 µM
DU-145 prostate
  TGI: 5.75 µM
HT29 colon
  TGI: 1.72 µM and 6.46 µM
SF-268 CNS
  GI50: 0.134 µM and 0.632 µM
  TGI: 0.738 µM and 4.52 µM
SW-620 colon
  TGI: 1.96 µM and 16.7 µM
UO-31 renal
  GI50: 0.531 µM and 3.98 µM

## COc1ccc(C(C#N)NC23CC4CC(CC(C4)C2)C3)cc1OC (stereo unspecified)
A549 NSCLC
  TGI: > 100 µM
DU-145 prostate
  TGI: > 100 µM
HT29 colon
  TGI: > 100 µM
OVCAR-8 ovarian
  TGI: > 100 µM
RPMI-8226 leukemia
  TGI: > 100 µM
SF-268 CNS
  TGI: > 100 µM
SN12C renal
  TGI: > 100 µM
SNB-75 CNS
  TGI: > 100 µM
SW-620 colon
  TGI: > 100 µM
UO-31 renal
  TGI: > 100 µM

## O=C(/C=C/C12c3ccccc3C(c3ccccc31)C1C(=O)N(c3ccccc3)C(=O)C12)c1ccc(Cl)cc1 (stereo unspecified)
A549 NSCLC
  GI50: 2.37 µM
  TGI: > 100 µM
DU-145 prostate
  GI50: 1.77 µM
  TGI: 4.03 µM
HT29 colon
  GI50: 1.86 µM
  TGI: 7.88 µM
OVCAR-8 ovarian
  GI50: 1.43 µM
  TGI: > 100 µM
RPMI-8226 leukemia
  GI50: 1.16 µM
  TGI: 4.68 µM
SF-268 CNS
  GI50: 4.56 µM
  TGI: > 100 µM
SN12C renal
  GI50: 2.34 µM
  TGI: > 100 µM
SNB-75 CNS
  GI50: 1.37 µM
  TGI: 6.77 µM
SW-620 colon
  GI50: 2.27 µM
  TGI: > 100 µM
UO-31 renal
  GI50: 1.12 µM
  TGI: 2.47 µM

## COc1cc([N+](=O)[O-])c(S(=O)(=O)O)cc1NS(=O)(=O)c1ccc(C)cc1
A549 NSCLC
  TGI: > 100 µM
DU-145 prostate
  TGI: > 100 µM
HT29 colon
  TGI: > 100 µM
OVCAR-8 ovarian
  TGI: > 100 µM
RPMI-8226 leukemia
  TGI: > 100 µM
SF-268 CNS
  TGI: > 100 µM
SN12C renal
  TGI: > 100 µM
SNB-75 CNS
  TGI: > 100 µM
SW-620 colon
  TGI: > 100 µM
UO-31 renal
  TGI: > 100 µM

## COc1ccc2c(c1)[C@]1(C[C@H]1c1ccc3c(/C=C/c4ccc(CN5C[C@@H](C)O[C@@H](C)C5)cc4)n[nH]c3c1)C(=O)N2
A549 NSCLC
  GI50: 2.72 µM
  TGI: > 55.4 µM
DU-145 prostate
  GI50: 4.91 µM
  TGI: 45.6 µM
HT29 colon
  GI50: 2.83 µM
  TGI: 11.6 µM
OVCAR-8 ovarian
  GI50: 5.06 µM
  TGI: 51.1 µM
RPMI-8226 leukemia
  GI50: 1.59 µM
  TGI: > 100 µM
SF-268 CNS
  GI50: 4.63 µM
  TGI: > 90.6 µM
SN12C renal
  GI50: 5.15 µM
  TGI: > 56.7 µM
SNB-75 CNS
  GI50: 1.84 µM
  TGI: 13.4 µM
SW-620 colon
  GI50: 2.46 µM
  TGI: > 61 µM
UO-31 renal
  GI50: 2.84 µM
  TGI: > 100 µM

## CN1CCN(CCCOc2cccc3nc(Nc4ccc(Cl)c(F)c4)ccc23)CC1
A549 NSCLC
  GI50: 1.96 µM
  TGI: 3.65 µM
DU-145 prostate
  GI50: 1.75 µM
  TGI: 3.19 µM
HT29 colon
  GI50: 1.41 µM
  TGI: 2.8 µM
OVCAR-8 ovarian
  GI50: 2.02 µM
  TGI: 3.65 µM
RPMI-8226 leukemia
  GI50: 2.55 µM
  TGI: 5.88 µM
SF-268 CNS
  GI50: 1.72 µM
  TGI: 3.46 µM
SN12C renal
  GI50: 4.16 µM
  TGI: 16 µM
SW-620 colon
  GI50: 1.97 µM
  TGI: 3.71 µM
UO-31 renal
  GI50: 1.57 µM
  TGI: 3.32 µM

## COc1cc2ccccc2c2cc([N+](=O)[O-])oc12
A549 NSCLC
  TGI: 22.7 µM
DU-145 prostate
  TGI: 7.49 µM
HT29 colon
  TGI: 21.9 µM
OVCAR-8 ovarian
  TGI: > 71.8 µM
RPMI-8226 leukemia
  TGI: 14.7 µM
SF-268 CNS
  TGI: > 27.1 µM
SN12C renal
  TGI: > 48.7 µM
SNB-75 CNS
  TGI: 6.9 µM
SW-620 colon
  TGI: 15 µM
UO-31 renal
  TGI: 3.1 µM

## COc1cc(NS(C)(=O)=O)ccc1Nc1c2ccccc2nc2c(C)cccc12
A549 NSCLC
  GI50: 0.0189 µM and 0.0234 µM
  TGI: 1.25 µM and 1.04 µM
DU-145 prostate
  GI50: 0.145 µM and 0.163 µM
  TGI: 7 µM and 11.5 µM
HT29 colon
  GI50: 0.443 µM and 0.372 µM
  TGI: 8.98 µM and 2.09 µM
OVCAR-8 ovarian
  GI50: 0.233 µM and 0.23 µM
  TGI: 7.08 µM and 11.6 µM
RPMI-8226 leukemia
  GI50: 0.187 µM and 0.134 µM
  TGI: 0.853 µM and 0.717 µM
SF-268 CNS
  GI50: 0.266 µM and 0.288 µM
  TGI: 13.6 µM and 14.2 µM
SN12C renal
  GI50: 0.0961 µM and 0.087 µM
  TGI: 1.36 µM and 2.08 µM
SNB-75 CNS
  GI50: 0.143 µM and 0.316 µM
  TGI: 4.31 µM and 10.7 µM
SW-620 colon
  GI50: 0.0825 µM and 0.123 µM
  TGI: 3.4 µM and 4 µM
UO-31 renal
  GI50: 0.215 µM and 0.124 µM
  TGI: 5.28 µM and 2.81 µM

## CC(N=C(N)N)C(=O)O (stereo unspecified)
A549 NSCLC
  TGI: > 100 µM
DU-145 prostate
  TGI: > 100 µM
HT29 colon
  TGI: > 100 µM
OVCAR-8 ovarian
  TGI: > 100 µM
RPMI-8226 leukemia
  TGI: > 100 µM
SF-268 CNS
  TGI: > 100 µM
SN12C renal
  TGI: > 100 µM
SNB-75 CNS
  TGI: > 100 µM
SW-620 colon
  TGI: > 100 µM
UO-31 renal
  TGI: > 100 µM

## Cn1cc(C2=C(c3c4n(c5ccccc35)CCCC4)C(=O)NC2=O)c2ccccc21
A549 NSCLC
  GI50: 12.5 µM
  TGI: > 25 µM
DU-145 prostate
  GI50: > 15 µM
  TGI: > 25 µM
HT29 colon
  GI50: 9.39 µM
  TGI: > 25 µM
OVCAR-8 ovarian
  GI50: > 18.4 µM
  TGI: > 25 µM
RPMI-8226 leukemia
  GI50: > 15.6 µM
  TGI: > 25 µM
SF-268 CNS
  GI50: 12 µM
  TGI: > 25 µM
SN12C renal
  GI50: 15.1 µM
  TGI: > 25 µM
SNB-75 CNS
  GI50: 3.82 µM
  TGI: 19.3 µM
SW-620 colon
  GI50: 8.74 µM
  TGI: > 25 µM
UO-31 renal
  GI50: 11.3 µM
  TGI: > 25 µM

## COc1cc2c(c(OC)c1OC)C(=O)CC(c1cccc(NC(=O)c3ccc(Br)cc3)c1)O2 (stereo unspecified)
A549 NSCLC
  GI50: 3.57 µM
  TGI: > 100 µM
DU-145 prostate
  GI50: 2.85 µM
  TGI: > 100 µM
HT29 colon
  GI50: 2.77 µM
  TGI: > 100 µM
OVCAR-8 ovarian
  GI50: 2.9 µM
  TGI: 9.19 µM
RPMI-8226 leukemia
  GI50: 1.44 µM
  TGI: 3.93 µM
SF-268 CNS
  GI50: 2.57 µM
  TGI: > 100 µM
SN12C renal
  GI50: 3.06 µM
  TGI: > 100 µM
SW-620 colon
  GI50: 3.83 µM
  TGI: > 100 µM
UO-31 renal
  GI50: 1.49 µM
  TGI: > 100 µM

## O=C(CCN1CCOCC1)Nc1ccc(F)cc1F
A549 NSCLC
  TGI: > 100 µM
DU-145 prostate
  TGI: > 100 µM
HT29 colon
  TGI: > 100 µM
OVCAR-8 ovarian
  TGI: > 100 µM
RPMI-8226 leukemia
  TGI: > 100 µM
SF-268 CNS
  TGI: > 100 µM
SN12C renal
  TGI: > 100 µM
SW-620 colon
  TGI: > 100 µM
UO-31 renal
  TGI: > 100 µM

## COc1cc(-c2nn(-c3ccc(NC(=O)Nc4ccc(Cl)c(Cl)c4)cc3)cc2-c2ccncc2)ccc1Cl
A549 NSCLC
  GI50: 3.58 µM
  TGI: > 100 µM
DU-145 prostate
  GI50: 4.33 µM
  TGI: 69.7 µM
HT29 colon
  GI50: 3.52 µM
  TGI: 17.1 µM
OVCAR-8 ovarian
  GI50: 3.49 µM
  TGI: > 100 µM
SF-268 CNS
  GI50: 4.57 µM
  TGI: > 100 µM
SN12C renal
  GI50: 3.96 µM
  TGI: > 100 µM
SNB-75 CNS
  GI50: 2.13 µM
  TGI: 9.75 µM
SW-620 colon
  GI50: 4.3 µM
  TGI: 19.4 µM
UO-31 renal
  GI50: 2.74 µM
  TGI: 11.3 µM
